Test results taken from patent US20020120098A1, “Enhanced stimulation of erythropoiesis” (priority 1996, published 2002).

How the values were obtained:
cord blood LDMNC = assay: Erythroid differentiation of cord blood LDMNC in liquid culture; assay type: cell-based, human; conditions: 20 days
Description: The ability of purified adult hemoglobin to stimulate erythroid progenitor differentiation has also been studied using a liquid culture system containing Epo. In this liquid culture system hemin is known to accelerate erythroid differentiation of progenitors obtained from normal adult peripheral blood, and to selectively increase fetal hemoglobin production in these cells. Primary low density mononuclear cells (LDMNC) isolated from cord blood were tested in this culture system. […] The addition of HAo (7.8-15.6 μM) to the cultures results in a further increase in glycophorin A/CD71 co-expression (80% vs. 53% in the Epo only control) and benzidine staining (82% vs. 43% in the Epo only control) after 20 days in culture.
The effect of HAo on erythroid differentiation was tested on cord blood LDMNC. […] 1.0 mg/ml HAo (15.6 μM) was added to Epo-stimulated cultures and the cultured cells were analyzed by flow cytometry (Epics Elite, Coulter) after 20 days for the co-expression of the red cell-specific marker, glycophorin A, and the transferrin receptor, CD71. […] Cultured cells were stained with anti-CD71 (abscissa) and anti-glycophorin A (ordinate) antibodies and the number of single- or double-stained cells (z-axis) analyzed. […] The percentage of glycophorin A^+/CD71^+ cells was determined from analysis of at least 6,500 cells per sample.

[1] = Half-life and blood level of Epo versus HEMOLINK after single i.v. administration; assay type: in vivo; conditions: for HEMOLINK level: single i.v. 4 ml/kg
Excerpt: Another strategy for the co-administration of Epo and hemoglobin is to reduce the number of Epo administrations required during therapy. Several Epo therapies follow the regimen of three weekly injections, either intravenously or subcutaneously. Multiple low dose or single high dose injections of Epo are required due to its relatively short half-life in vivo. […] HEMOLINK™ has a longer half-life. […] Longer half-life of the cross-linked hemoglobin can therefore compensate for Epo which may decline at a much faster rate. Thus, hemoglobin co-administered with Epo could prolong the effectiveness of Epo and therefore this combination therapy can be used to reduce the required frequency of Epo administrations.

anemic rats = assay: Stimulation of erythropoiesis in iron-deficient anemic rats; assay type: in vivo, Sprague Dawley rats
Description: HEMOLINK™ was evaluated for the stimulation of erythropoiesis in anemic rats. Male Sprague Dawley rats were made anemic on an iron deficient diet over a 4 week period. Six of the anemic rats received two infusions via tail vein injection one week apart (dose I and dose II) of 10% of total blood volume of 9.8 g/dL HEMOLINK™. Nine anemic rats received an equivalent amount of parenteral iron (INFJFER™, Sabex) per kg body weight for comparison. Both solutions contained 342.9 mg/L iron. The iron-deficient anemia of the HEMOLINK™ group was characterized by a pretreatment serum iron level of […] (n=1), a reticulocyte count of 0.39±0.08×10^12/L, a red blood cell count of 1.85±0.35×10^12/L, a 6.5±1.26% hematocrit and a total blood hemoglobin of 30.5±4.38 g/L.
Statistical comparisons in FIG. 14 are based on one way analyses of variance, followed by Bonefoni comparison post-hoc tests. The effect of HEMOLINK™ infusion on reticulocyte count, red blood cell count, total hemoglobin and hematocrit in anemic male rats was compared to iron infusion (INFUFER™; an iron-containing pharmaceutical composition) and to pretreatment levels. Significant differences are indicated by *p<0.05 compared with INFUFER™ and **p<0.01 compared with pretreatment anemic rats.

[2] = anemic male rats, two i.v. infusions one week apart

Row | Substance | percentage of cells co-expressing glycophorin A and CD71 (cord blood LDMNC; HAo 1.0 mg/ml (15.6 μM; b99: 7.8-15.6 μM), Epo-stimulated, untreated 53%) [%] | benzidine staining (cord blood LDMNC; HAo 7.8-15.6 μM, 2 U/ml Epo, Epo only control 43%) [%] | HEMOLINK level ([1]; 0 hours post administration) [mg/mL] | half-life of the 64 kD fraction ([1]; 0.4 g HEMOLINK/kg body weight) [h] | half-life of the >64 kD fraction ([1]; 0.4 g HEMOLINK/kg body weight) [h] | HEMOLINK level ([1]; 21 hours post administration) [mg/mL] | HEMOLINK level ([1]; 42 hours post administration) [mg/mL] | HEMOLINK level ([1]; 63 hours post administration) [mg/mL] | HEMOLINK level ([1]; 84 hours post administration) [mg/mL] | erythropoietic response of anemic female rats (anemic rats; anemic female rats) | serum iron level at study termination (anemic rats; anemic female rats, two doses) [mg/dL] | increase in hematocrit (anemic rats; [2]) | increase in number of red blood cells (anemic rats; [2]) | increase in number of reticulocytes (anemic rats; [2]) | increase in total hemoglobin concentration (anemic rats; [2]) | serum iron level at study termination (anemic rats; male rats, two infusions) [mg/dL]
1 | HAo: adult human hemoglobin obtained from red blood cells and purified by displacement chromatography; uncross linked product | 80 | 82 | – | – | – | – | – | – | – | – | – | – | – | – | – | –
2 | HEMOLINK™: chemically crosslinked hemoglobin prepared by treating human hemoglobin with a polyaldehyde (O-raffinose) | – | – | 4.7 | ~7 | ~21 | 1.75 | 0.81 | 0.39 | 0.19 | not significantly different from INFUFER™ | 27.70 ± 9.88 | significant increase | significant increase | significant increase | significant increase | 10.0 ± 1.95
